Values quoted from earlier work as cited in US20100113605A1 (priority 2007, published 2010).
Like-named read-outs stand apart in the source and are kept apart here.

How the values were obtained:
[1] = biological target: DAT (Rattus norvegicus, UniProt P23977); settings: for Site of action: 'Intraneuronal' cell continues 'via DAT'; for Pharmacodynamics of effect on synaptic [DA]: [DA] = dopamine concentration, cell wraps, ends with 'increases'; for Firing dependent effect on synaptic [DA]: in vivo
DAT, sequence (P23977 whole entry, the tested form may be a part): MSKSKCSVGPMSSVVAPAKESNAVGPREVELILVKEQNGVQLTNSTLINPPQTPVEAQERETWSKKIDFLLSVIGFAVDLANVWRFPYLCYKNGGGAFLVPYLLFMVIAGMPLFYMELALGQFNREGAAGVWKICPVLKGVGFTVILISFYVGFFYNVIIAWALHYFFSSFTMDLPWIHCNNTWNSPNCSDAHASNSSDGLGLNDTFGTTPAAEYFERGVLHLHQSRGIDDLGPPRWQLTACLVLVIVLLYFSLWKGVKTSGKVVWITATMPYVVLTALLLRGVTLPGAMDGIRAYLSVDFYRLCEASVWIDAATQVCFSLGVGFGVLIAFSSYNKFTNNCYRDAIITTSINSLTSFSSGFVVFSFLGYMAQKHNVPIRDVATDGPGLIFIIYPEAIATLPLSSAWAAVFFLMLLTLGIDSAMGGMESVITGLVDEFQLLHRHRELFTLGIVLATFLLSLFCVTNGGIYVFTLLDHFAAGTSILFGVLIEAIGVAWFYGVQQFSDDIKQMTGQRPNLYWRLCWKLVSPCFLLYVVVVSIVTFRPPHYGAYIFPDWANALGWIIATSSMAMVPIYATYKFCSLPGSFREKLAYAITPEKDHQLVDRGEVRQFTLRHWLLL

[2] = test system: rat striatal slices; settings: for Percentage increase in [^3H]dopamine release: mean ± SEM (n ≧ 4), NS = not significantly different from basal [^3H]dopamine overflow; for release of [^3H]dopamine from superfused rat striatal slices: low (10^−7M) and high (10^−5M) concentration
[3] = in vivo
[4] = test system: electrically-evoked levels of extracellular dopamine in the nucleus accumbens; settings: 100 nmol icv, 1 day after injection
[5] = test system: extraneuronal dopamine concentrations in the nucleus accumbens
[6] = test system: extraneuronal dopamine in the nucleus accumbens; settings: d-amphetamine 0.5 mg/kg s.c.; tetrodotoxin 1×10^−6M

COC(=O)C(c1ccccc1)C1CCCCN1 (racemic) [Methylphenidate, dl-threo-methylphenidate]
Site of action [1]: Extraneuronal | Pharmacodynamics of effect on synaptic [DA] [1]: Rapid, very large | Firing dependent effect on synaptic [DA] [1]: Yes | Percentage increase in [^3H]dopamine release ([2]; 10^−5M): 24 ± 7 % | Percentage increase in [^3H]dopamine release ([2]; 10^−5M, listed as methylphenidate): statistically significant increase | Percentage increase in [^3H]dopamine release ([2]; 10^−7M): no stimulation | Euphoriant/psychostimulant [3]: Yes

CC(N)Cc1ccccc1 (centres unmarked) [Amphetamine]
Site of action [1]: Intraneuronal | Pharmacodynamics of effect on synaptic [DA] [1]: Rapid, very large | Firing dependent effect on synaptic [DA] [1]: No | Euphoriant/psychostimulant [3]: Yes

CNC(CC(C)C)C1(c2ccc(Cl)cc2)CCC1 (centres unmarked) [BTS 54 354, N-{1-[1-(4-chlorophenyl)cyclobutyl]-3-methylbutyl}-N-methylamine]
release of [^3H]dopamine from superfused rat striatal slices [2]: did not release

CC(C)CC(N)C1(c2ccc(Cl)cc2)CCC1 (centres unmarked) [BTS 54 505, 1-[1-(4-chlorophenyl)cyclobutyl]-3-methylbutylamine]
release of [^3H]dopamine from superfused rat striatal slices [2]: did not release

CC(NC(C)(C)C)C(=O)c1cccc(Cl)c1 (centres unmarked) [Bupropion, bupropion]
Site of action [1]: Extraneuronal | Pharmacodynamics of effect on synaptic [DA] [1]: Gradual, moderate, | Firing dependent effect on synaptic [DA] [1]: Yes | release of [^3H]dopamine from superfused rat striatal slices [2]: did not release

CNC(C)Cc1ccc2c(c1)OCO2 (centres unmarked) [MDMA, methylenedioxymethamphetamine]
Site of action [1]: Intraneuronal | Pharmacodynamics of effect on synaptic [DA] [1]: Rapid, very large | Firing dependent effect on synaptic [DA] [1]: No | Euphoriant/psychostimulant [3]: Yes

CN[C@@H](C)Cc1ccccc1 [Methamphetamine, methamphetamine]
Site of action [1]: Intraneuronal | Pharmacodynamics of effect on synaptic [DA] [1]: Rapid, very large | Firing dependent effect on synaptic [DA] [1]: No | Percentage increase in [^3H]dopamine release ([2]; 10^−5M): 140 ± 10 % | Percentage increase in [^3H]dopamine release ([2]; 10^−7M): 37 ± 10 % | release of [^3H]dopamine from superfused rat striatal slices [2]: dose-dependently released | Euphoriant/psychostimulant [3]: Yes

CN1C2CCC1C(C(=O)OCc1ccc(N=C=S)cc1)C(c1ccc(Cl)cc1)C2.Cl (stereo not drawn) [RTI-76, 3β-(ρ-chlorophenyl)tropan-2α-carboxylic acid ρ-isothio-cyanatophenylmethyl ester hydrochloride]
extracellular concentration of dopamine in the nucleus accumbens, electrically evoked [4]: increases the extracellular concentration of dopamine in the nucleus accumbens in a frequency-dependent manner

CC(C)CC(N(C)C)C1(c2ccc(Cl)cc2)CCC1 (centres unmarked) [Sibutramine, sibutramine]
increase in extraneuronal concentration of dopamine in the nucleus accumbens ([5]; 2.0 mg/kg ip, freely-moving rats): failed to reach statistical significance | time of maximum increase in extraneuronal dopamine ([5]; 6.0 mg/kg ip): 60 min | maximum increase in extraneuronal concentration of dopamine in the nucleus accumbens ([5]; 6.0 mg/kg ip, at 60 min, freely-moving rats, P<0.001): 231±87% | Site of action [1]: Extraneuronal | Pharmacodynamics of effect on synaptic [DA] [1]: Gradual, moderate, | Firing dependent effect on synaptic [DA] [1]: Yes | release of [^3H]dopamine from superfused rat striatal slices [2]: did not release | Euphoriant/psychostimulant [3]: No

C[C@H](N)Cc1ccccc1 [d-Amphetamine, d-amphetamine]
effect of tetrodotoxin in the dialysate on the drug-evoked increase in extraneuronal dopamine [6]: not altered | peak increase in extraneuronal dopamine concentration in the nucleus accumbens ([5]; 0.5 mg/kg ip): 242±89% | peak increase in extraneuronal dopamine concentration in the nucleus accumbens ([5]; 1.5 mg/kg ip): 603±319% | time of maximum increase in extraneuronal dopamine ([5]; both doses, 0.5 and 1.5 mg/kg ip): 40 min | Percentage increase in [^3H]dopamine release ([2]; 10^−5M): 138 ± 15 % | Percentage increase in [^3H]dopamine release ([2]; 10^−7M): 56 ± 9 % | release of [^3H]dopamine from superfused rat striatal slices [2]: dose-dependently released
